According to patent US4656180A, “Diamine derivatives and pharmaceutical preparations containing these compounds” (Ludwig Heumann & Co., GmbH, priority 1984, dated 1987):

Assays:
[1] = therapeutic use; several daily doses of tablets required; cited from earlier work
histamine-H2 receptors = molecular target: T1, histamine-H2 receptors (Cavia porcellus, UniProt P47747); assay: pA2-values in vitro on isolated guinea-pigs' atrium (H2-antagonistic activity); parameters: species or system guinea-pig
T1 construct: in vitro on isolated guinea-pigs' atrium; from tissue; host or cells: isolated guinea-pig atrium (right atrium per b6)
T1 sequence (P47747 whole entry): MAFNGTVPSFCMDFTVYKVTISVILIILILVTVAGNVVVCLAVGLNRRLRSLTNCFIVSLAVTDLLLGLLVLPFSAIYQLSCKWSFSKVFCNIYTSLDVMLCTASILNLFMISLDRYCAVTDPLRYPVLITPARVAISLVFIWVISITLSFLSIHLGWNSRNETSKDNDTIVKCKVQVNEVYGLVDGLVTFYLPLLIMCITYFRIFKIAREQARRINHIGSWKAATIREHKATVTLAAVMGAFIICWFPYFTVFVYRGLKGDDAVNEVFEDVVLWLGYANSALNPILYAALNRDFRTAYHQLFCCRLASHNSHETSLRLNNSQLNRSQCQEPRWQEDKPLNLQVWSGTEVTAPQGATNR
Text: J. Pharmacol. Chemother. ", 27, 427 (1966) and Black et al, "Nature", 236, 385 (1971)].
One recognized method of determining the H2 -antagonistic activity is the determination of the pA2 -values in vitro on isolated guinea-pigs' atrium (see Ariens, Molecular Pharmacology, Volume 1, Academic Press, New York, 1964).

Kb (histamine-H2 receptors) | SMILES | half life [1]
– | CN/C(=N/CCSCc1nc[nH]c1C)NC#N [Cimetidine] | relatively short half life
– | CNC(=C[N+](=O)[O-])NCCSCc1ccc(CN(C)C)o1 [ranitidine] | relatively short half life
7.24 nM | [O-][s+]1nc(NCC(O)COc2cccc(CN3CCCCC3)c2)c(NCC(O)COc2cccc(CN3CCCCC3)c2)n1 (stereo not drawn) [Example 4] | –
